In patent US20110263693A1, “CELASTROL, GEDUNIN, AND DERIVATIVES THEREOF AS HSP90 INHIBITORS” (DANA-FARBER CANCER INSTITUTE, INC., priority 2006, published 2011):
Like-named read-outs stand apart in the source and are kept apart here.

Experiments:
[1] = tested on: celastrol signature; assay: Connectivity Map query with the celastrol signature; assay type: cell-based, human; design: key to celastrol score (connectivity score): connectivity score, based on Kolmogorov-Smirnov statistic
From the text: (§1) Indeed, a major challenge in cell-based chemical biology and chemical genomics is the identification of compounds' targets (Gardner et al., 2003). We hypothesized that gene expression signatures could be used to identify compound action based on the similarity of such compound-induced signatures to signatures of existing drugs of known mechanism. We therefore employed a collection of gene expression profiles of drug-treated cell lines that was developed in our lab, termed the Connectivity Map (Lamb et al., 2006). This database comprises 453 genome-wide Affymetrix expression profiles derived from the treatment of human cell lines with 164 small molecules, primarily FDA-approved drugs. A 6 hr treatment time was chosen in an attempt to capture the primary, and potentially mechanistic, effects of the compounds rather than the downstream phenotypic consequences.
(§2) In order to use the Connectivity Map to gain insight into celastrol and gedunin function, we first defined a gene expression signature of celastrol and gedunin activity. The expression signatures of celastrol and gedunin were derived by expression profiling of RNA from LNCaP cells treated with celastrol (1.25 μM), gedunin (20 μM), and vehicle (DMSO) for 6 hr; signatures were defined using comparative marker selection to identify transcripts that distinguished between the compound- and vehicle-treated profiles by the signal-to-noise (SNR) metric. The enrichment of these signatures in the gene expression profiles of the Connectivity Map database was then assessed using a gene enrichment metric, the connectivity score, based on the Kolmogorov-Smirnov statistic (Lamb et al., 2003).
(§3) The celastrol and gedunin signatures were developed from RMA-processed microarray data from LNCaP cells treated with 1.25 μM celastrol or 20 μM gedunin for 6 hours. Comparative marker selection was used to identify markers that distinguished celastrol- and/or gedunin-treated samples from vehicle-treated samples by the median SNR (Golub et al., 1999). The top 50 markers that increased and decreased relative to vehicle-treated controls were used as the signatures.
(§4) The current version of the Connectivity Map data set (build01) contains genome-wide expression data for 453 treatment and vehicle control pairs, representing 164 distinct small molecules. Cell treatments and Affymetrix profiling were predominantly carried out in MCF7 cells with 6 hr treatments as detailed (Table 4) (Lamb et al., 2006). Enrichment of the induced and repressed genes of a signature within each Connectivity Map treatment profile was estimated with a metric based on the Kolmogorov-Smirnov statistic as described (Lamb et al., 2003, Lamb et al., 2006). Connectivity Map data are available at www.broad.mit.edu/cmap/ and GEO (accession number GSE5258).
(§5) For the celastrol and gedunin signatures, RMA-processed data was filtered and thresholded (min fold change=2, min absolute change=50, floor=10, ceiling=16000). Comparative marker selection (GenePattern) was used to identify markers that distinguished celastrol- and/or gedunin-treated samples from vehicle-treated samples by the median SNR. The top fifty markers that increased and decreased relative to vehicle treated controls were used as the celastrol, gedunin, or joint celastrol/gedunin signatures.
(§6) The current version of The Connectivity Map dataset (build01) contains genome-wide expression data for 453 treatment and vehicle control pairs, representing 164 distinct small molecules. Cell treatments were predominantly carried out in the MCF7 cell line for 6 h as detailed in Table 4. Affymetrix profiling was then carried out as described (Lamb et al., 2006).

[2] = tested on: gedunin signature; assay: Connectivity Map query with the gedunin signature; assay type: cell-based, human; design: key to gedunin score (connectivity score): connectivity score, based on Kolmogorov-Smirnov statistic
From the text: as §1, §2, §3, §4, §5, §6

[3] = enrichment of the celastrol signature (1.25 μM celastrol at 6 h, LNCaP) in the compound's Connectivity Map profiles, 6 hr treatment
[4] = enrichment of the gedunin signature (20 μM gedunin at 6 hours, LNCaP) in the compound's Connectivity Map profiles, 6 hr treatment
[5] = rank by celastrol score among 164 Connectivity Map compounds
[6] = rank by gedunin score among 164 Connectivity Map compounds

In the case of `Nc1nc2nc[nH]c2c(=S)[nH]1` [tioguanine], the “celastrol score (connectivity score)” value [1, 3] is reported as 0 and the “gedunin score (connectivity score)” value [2, 4] is reported as −0.613.
With `O=c1c(O)c(-c2ccc(O)c(O)c2)oc2cc(O)ccc12` [fisetin] the “celastrol score (connectivity score)” value [1, 3] was 0 and the “gedunin score (connectivity score)” value [2, 4] was 0.
`Nc1c(O)cccc1C(=O)CC(N)C(=O)O` (racemic) [3-hydroxy-DL-kynurenine] was tested, and the “celastrol score (connectivity score)” value [1, 3] was 0, the celastrol rank [1, 5] was 136 and the “gedunin score (connectivity score)” value [2, 4] was 0. The gedunin rank [2, 6] was 96.
With `O=C(O)c1ccccc1Nc1ccccc1` [N-phenylanthranilic acid] the “celastrol score (connectivity score)” value [1, 3] was 0 and the “gedunin score (connectivity score)” value [2, 4] was −0.472.
`CO[C@@H]1[C@@H](OC(N)=O)[C@@H](O)[C@H](Oc2ccc3c(O)c(NC(=O)c4ccc(O)c(CC=C(C)C)c4)c(=O)oc3c2C)OC1(C)C` [novobiocin] was tested, and the “celastrol score (connectivity score)” value [1, 3] was 0.167 and the “gedunin score (connectivity score)” value [2, 4] was 0.261.
For `C[C@]12CC[C@@H]3c4ccc(O)cc4CC[C@H]3[C@@H]1CC[C@@H]2O` [estradiol], the “celastrol score (connectivity score)” value [1, 3] was 0.017 and the “gedunin score (connectivity score)” value [2, 4] was −0.166.
With `C=C1[C@@H](C)[C@H]2[C@H](Cc3ccccc3)NC(=O)[C@]23OC(=O)/C=C/[C@H](O)CCC[C@@H](C)C/C=C/[C@H]3[C@@H]1O` [cytochalasin B] the “celastrol score (connectivity score)” value [1, 3] was 0, the celastrol rank [1, 5] was 125 and the “gedunin score (connectivity score)” value [2, 4] was 0.476. For the same compound, the gedunin rank [2, 6] was 22.
For `CC[C@H]1/C=C/C=C/C[C@@H](C)[C@H](O)[C@@](C)(O)C(=O)[C@@H](C)[C@H](O)[C@@H](C)C(=O)[C@@H](C)[C@H](O)[C@@H](C)/C=C/C(=O)O[C@@H]2[C@H](C)[C@H](CC1)O[C@]1(CC[C@H](C)[C@H](C[C@@H](C)O)O1)[C@H]2C` [oligomycin], the “celastrol score (connectivity score)” value [1, 3] was −0.491 and the “gedunin score (connectivity score)” value [2, 4] was 0.305.
In the case of `CCOC(=O)C1=C(C)NC(=S)NC1c1cccc(O)c1` (stereo not shown) [monastrol], the “celastrol score (connectivity score)” value [1, 3] is reported as 0.226 and the “gedunin score (connectivity score)” value [2, 4] is reported as 0.069.
`O=S(=O)([O-])[O-].[Cu+2]` [copper sulfate] was tested, and the celastrol rank [1] was 68, the “celastrol score (connectivity score)” value [1] was 0.113 and the gedunin rank [2] was 78. For the same compound, the “gedunin score (connectivity score)” value [2] was 0.066.
In the case of `CC(=O)c1c(O)c(C)c(O)c(Cc2c(O)c3c(c(C(=O)/C=C/c4ccccc4)c2O)OC(C)(C)C=C3)c1O` [rottlerin], the “celastrol score (connectivity score)” value [1, 3] is reported as 0.355 and the “gedunin score (connectivity score)” value [2, 4] is reported as 0.209.
For `COC(=O)[C@@H]1[C@H]2C[C@H]3c4[nH]c5ccccc5c4CCN3C[C@@H]2CC[C@@H]1O` [yohimbine], the “celastrol score (connectivity score)” value [1, 3] was 0 and the “gedunin score (connectivity score)” value [2, 4] was 0.
`Cc1cccc(Nc2cc(Cl)nc(SCC(=O)O)n2)c1C` [pirinixic acid] was tested, and the “celastrol score (connectivity score)” value [1, 3] was 0.226 and the “gedunin score (connectivity score)” value [2, 4] was 0.055.
`Oc1ccc(C=Cc2cc(O)cc(O)c2)cc1` [resveratrol] was tested, and the “celastrol score (connectivity score)” value [1, 3] was 0.266 and the “gedunin score (connectivity score)” value [2, 4] was 0.4.
`O=C1NC(=O)c2cc(Nc3ccccc3)c(Nc3ccccc3)cc21` [4,5-dianilinophthalimide] was tested, and the “celastrol score (connectivity score)” value [1, 3] was 0 and the “gedunin score (connectivity score)” value [2, 4] was 0.
In the case of `C[C@@H]1NC(=O)[C@H]2CCCN2C(=O)[C@H](CCCCCC(=O)[C@@H]2CO2)NC(=O)[C@@H](C)NC1=O` [HC toxin], the “celastrol score (connectivity score)” value [1, 3] is reported as 0, the celastrol rank [1, 5] is reported as 90 and the “gedunin score (connectivity score)” value [2, 4] is reported as 0.526. The gedunin rank [2, 6] was 15.
For `CC(C)c1ccc2c(c1)c(SC(C)(C)C)c(CC(C)(C)C(=O)O)n2Cc1ccc(Cl)cc1` [MK-886], the “celastrol score (connectivity score)” value [1, 3] was 0, the celastrol rank [1, 5] was 94 and the “gedunin score (connectivity score)” value [2, 4] was −0.336. The gedunin rank [2, 6] was 155.
In the case of `C[C@]12CC[C@@H]3c4ccc(O)cc4CC[C@H]3[C@@H]1CC[C@H]2O` [alpha-estradiol], the “celastrol score (connectivity score)” value [1, 3] is reported as −0.066 and the “gedunin score (connectivity score)” value [2, 4] is reported as 0.045.
In the case of `Cc1ccc(-c2cc(C(F)(F)F)nn2-c2ccc(S(N)(=O)=O)cc2)cc1` [celecoxib], the “celastrol score (connectivity score)” value [1, 3] is reported as −0.01 and the “gedunin score (connectivity score)” value [2, 4] is reported as 0.114.
With `CN[C@H]1CCc2cc(OC)c(OC)c(OC)c2-c2ccc(OC)c(=O)cc21` [demecolcine] the “celastrol score (connectivity score)” value [1, 3] was 0 and the “gedunin score (connectivity score)” value [2, 4] was 0.
For `CC#CCC(C)[C@H](O)/C=C/[C@@H]1[C@H]2C/C(=C/CCCC(=O)O)C[C@H]2C[C@H]1O` (stereo partly shown) [iloprost], the “celastrol score (connectivity score)” value [1, 3] was 0.098 and the “gedunin score (connectivity score)” value [2, 4] was 0.101.
For `Nc1ncn([C@H]2C[C@H](O)[C@@H](CO)O2)c(=O)n1` [decitabine], the “celastrol score (connectivity score)” value [1, 3] was 0 and the “gedunin score (connectivity score)” value [2, 4] was 0.
In the case of `CN(C)C(=N)N=C(N)N` [metformin], the “celastrol score (connectivity score)” value [1, 3] is reported as −0.029 and the “gedunin score (connectivity score)” value [2, 4] is reported as −0.108.
In the case of `CN(C)CCC=C1c2ccccc2CCc2ccccc21` [amitriptyline], the “celastrol score (connectivity score)” value [1, 3] is reported as 0 and the “gedunin score (connectivity score)” value [2, 4] is reported as 0.
For `CC1=C(CC(=O)O)c2cc(F)ccc2/C1=C\c1ccc(S(C)(=O)=O)cc1` [exisulind], the “celastrol score (connectivity score)” value [1, 3] was −0.038 and the “gedunin score (connectivity score)” value [2, 4] was −0.277.
For `CCCC(CCC)C(=O)O` [valproic acid], the “celastrol score (connectivity score)” value [1, 3] was 0.086 and the “gedunin score (connectivity score)” value [2, 4] was 0.136.
In the case of `COC1=C2C[C@@H](C)C[C@H](OC)[C@H](O)[C@@H](C)/C=C(\C)[C@H](OC(N)=O)[C@@H](OC)/C=C\C=C(/C)C(=O)NC(=CC1=O)C2=O` [geldanamycin, reference compound], the “celastrol score (connectivity score)” value [1, 3] is reported as 0.676 and the “gedunin score (connectivity score)” value [2, 4] is reported as 0.74.
With `C/C(=C\c1ccc(C(=O)O)cc1)c1ccc2c(c1)C(C)(C)CCC2(C)C` [TTNPB] the “celastrol score (connectivity score)” value [1, 3] was 0, the celastrol rank [1, 5] was 97 and the “gedunin score (connectivity score)” value [2, 4] was 0.095. The gedunin rank [2, 6] was 74.
For `O=C(O)c1ccccc1Nc1cccc(C(F)(F)F)c1` [flufenamic acid], the “celastrol score (connectivity score)” value [1, 3] was 0 and the “gedunin score (connectivity score)” value [2, 4] was 0.
`CS(=O)(=O)c1ccc(C2=C(c3ccccc3)C(=O)OC2)cc1` [rofecoxib] was tested, and the “celastrol score (connectivity score)” value [1, 3] was 0.088 and the “gedunin score (connectivity score)” value [2, 4] was 0.148.
`COc1ccc2c(c1)c(CC(=O)O)c(C)n2C(=O)c1ccc(Cl)cc1` [indometacin] was tested, and the “celastrol score (connectivity score)” value [1, 3] was 0.228 and the “gedunin score (connectivity score)” value [2, 4] was 0.087.
For `CC(=O)OCOC(c1ccc2ccccc2c1)P(=O)(OCOC(C)=O)OCOC(C)=O` (stereo not shown) [HNMPA-(AM)3], the “celastrol score (connectivity score)” value [1, 3] was 0, the celastrol rank [1, 5] was 103 and the “gedunin score (connectivity score)” value [2, 4] was 0.365. It also gave a gedunin rank [2, 6] of 36.
With `O=c1c(-c2ccc(O)cc2)coc2cc(O)cc(O)c12` [genistein] the “celastrol score (connectivity score)” value [1, 3] was 0.153 and the “gedunin score (connectivity score)” value [2, 4] was 0.097.
`OCCN1CCN(CCCN2c3ccccc3Sc3ccc(C(F)(F)F)cc32)CC1` [fluphenazine] was tested, and the “celastrol score (connectivity score)” value [1, 3] was 0.481 and the “gedunin score (connectivity score)” value [2, 4] was 0.34.
